In PMC2009384, “The carcinogenicity of polycyclic hydrocarbon epoxides in newborn mice” (British Journal of Cancer, 1975):

Experiments:
newborn Swiss mice = assay: Experiment I: carcinogenicity in newborn mice, benz(a)anthracene vs its K region epoxide (s.c. injection, tumour incidence to 70-75 weeks)
Description: Br. J. Cancer (1975) 31, 182 THE CARCINOGENICITY OF POLYCYCLIC HYDROCARBON EPOXIDES IN NEWBORN MICE P. L. GROVER, P. SIMS, B. C. V. MITCHLEY AND F. J. C. ROE From the Chester Beatty Research Institute, Institute of Cancer Research, Royal Cancer Hospital, Fulham Road, London, SW3 6JB Received 9 August 1974. […] THE HYPOTHESIS that the carcino- genicity of polycyclic hydrocarbons is associated with the formation of epoxide metabolites (Grover, Hewer and Sims, 1971, 1972; Keysell et al., 1973) is sup- ported by some experimental evidence but remains unproven. […] The epoxides can also act as alkylating agents (Grover and Sims, 1970) and as mutagens (Ames, Sims and Grover, 1972; Huberman et al., 1971; Cookson, Sims and Grover, 1971; Fahmy and Fahmy, 1973). […] The newborn mouse, which is susceptible to carcinogenic polycyclic hydrocarbons (Roe, Rowson and Salaman, 1961; Roe, Mitchley and Walters, 1963; Walters and Roe, 1964, 1966) can be considered as a convenient source of several types of rapidly dividing cells. Consequently we have tested the K region epoxides derived from phenanthrene, benz(a)anthracene, 7-methylbenz(a)anthracene, dibenz(a,h)- anthracene, chrysene and 3-methylchol- anthrene, together with some of the CARCINOGENICITY OF POLYCYCLIC HYDROCARBON EPOXIDES IN MICE 183 parent hydrocarbons, for carcinogenicity using newborn mice. This paper presents the results that were obtained in these experiments. MATERIALS AND METHODS The polycyclic hydrocarbon epoxides, phenanthrene 9,10-oxide, benz(a)anthracene 5,6-oxide, 7-methylbenz(a)anthracene 5,6- oxide, dibenz(a,h)anthracene 5,6-oxide, chry- sene 5,6-oxide and 3-methylcholanthrene 11,12-oxide were prepared from the parent hydrocarbons (Newman and Blum, 1964; Boyland and Sims, 1965; Sims 1966). Two experiments were undertaken fol- lowing similar protocols. For each experi- ment Swiss mice from a specific pathogen- free colony were time mated so as to produce a large number of litters over the course of 2 or 3 days. […] Test compounds were suspended in poly- ethylene glycol (PEG) 400 and injections of 0-02 ml of the suspension were given by introducing a 25 gauge hypodermic needle through the skin near the root of the tail and threading it subcutaneously to deliver the injected material in the interscapular region. Injections were given to every mouse on the first day or first 3 days of life. The details of treatments and numbers of mice of each sex in each group are shown in Table I (Experiment I) and Table II (Ex- periment II). Surviving mice were weaned when they w ere 21 days old. Thereafter, males and females w ere separated and housed 6 per cage in metal boxes. A mixture of sawdust and wood shavings was used as bedding. The mice were fed on a standard cubed diet (Formulation 86 from C. Holdman and Sons (Plow co Feeds), Byers Lane, South Godstone, Surrey) and water was given ad libitum. Mice were inspected daily, and at weekly intervals they were weighed and palpated for tumours and other lesions. […] The experiment was terminated when surviving mice were between 70 and 75 weeks old. A full routine post- mortem examination, which included disten- sion of the urinary bladder with fixative, was carried out. The number of lesions thought to be neoplasms and the size of the largest such lesion in each organ affected were recorded. All tissues with suspected neoplasms were fixed in Bouin's solution. Haematoxylin and eosin stained 5 µm paraffin wax sections were prepared and examined microscopically. RESULTS The results of the two experiments in terms of tumour incidence are sum- marized in […].

newborn mice = conditions: ref Roe and Walters, 1967; cited from earlier work
[1] = females, 50 µg per treatment s.c. on Days 0, 1 and 2
[2] = females, 50 µg per treatment s.c. on Days 0, 1 and 2 in PEG 400
[3] = females, 100 µg per treatment s.c. on Days 0, 1 and 2
[4] = females, 100 µg per treatment s.c. on Days 0, 1 and 2 in PEG 400
[5] = females, 200 µg per treatment s.c. on Days 0, 1 and 2
[6] = females, 200 µg per treatment s.c. on Days 0, 1 and 2 in PEG 400
[7] = males, 50 µg per treatment s.c. on Days 0, 1 and 2
[8] = males, 50 µg per treatment s.c. on Days 0, 1 and 2 in PEG 400
[9] = males, 100 µg per treatment s.c. on Days 0, 1 and 2
[10] = males, 100 µg per treatment s.c. on Days 0, 1 and 2 in PEG 400
[11] = males, 200 µg per treatment s.c. on Days 0, 1 and 2
[12] = males, 200 µg per treatment s.c. on Days 0, 1 and 2 in PEG 400

Question: With `c1ccc2c(c1)-c1cc3ccccc3cc1[C@H]1O[C@@H]21` [Benz(a)anthracene 5,6-oxide, benz(a)anthracene 5,6-oxide] as the compound, how does the “incidence of liver tumours in males” value (newborn Swiss mice; 2 higher levels (Groups D and E, 3 x 200 and 3 x 100 µg)) read?
Answer: increase in incidence

Question: What about the “No. of mice examined at p.m. at termination of experiment (70th-75th week) with liver tumours” value (newborn Swiss mice; [1]) of the same compound?
Answer: 0

Question: And the “No. of mice examined at p.m. at termination of experiment (70th-75th week) with lung tumours” value (newborn Swiss mice; [1])?
Answer: 2

Question: What about the “No. of mice examined at p.m. at termination of experiment (70th-75th week) with multiple liver tumours” value (newborn Swiss mice; [1]) of the same compound?
Answer: 0

Question: And the “No. of mice examined at p.m. at termination of experiment (70th-75th week) with multiple lung tumours” value (newborn Swiss mice; [1])?
Answer: 0

Question: And the “No. of mice examined at p.m. at termination of experiment (70th-75th week) with other tumours” value (newborn Swiss mice; [1])?
Answer: 2

Question: And the “No. of mice examined at p.m. from 50th-70th week with liver tumours” value (newborn Swiss mice; [1])?
Answer: 0

Question: What about the “No. of mice examined at p.m. from 50th-70th week with lung tumours” value (newborn Swiss mice; [1]) of the same compound?
Answer: 0

Question: And the “No. of mice examined at p.m. from 50th-70th week with other tumours” value (newborn Swiss mice; [1])?
Answer: 1

Question: What about the “No. of survivors at 50 weeks” value (newborn Swiss mice; [2]) of the same compound?
Answer: 18

Question: And the “No. of survivors at 70 weeks” value (newborn Swiss mice; [2])?
Answer: 16

Question: What about the “No. of mice examined at p.m. at termination of experiment (70th-75th week) with liver tumours” value (newborn Swiss mice; [3]) of the same compound?
Answer: 0

Question: What about the “No. of mice examined at p.m. at termination of experiment (70th-75th week) with lung tumours” value (newborn Swiss mice; [3]) of the same compound?
Answer: 6

Question: What about the “No. of mice examined at p.m. at termination of experiment (70th-75th week) with multiple liver tumours” value (newborn Swiss mice; [3]) of the same compound?
Answer: 0

Question: And the “No. of mice examined at p.m. at termination of experiment (70th-75th week) with multiple lung tumours” value (newborn Swiss mice; [3])?
Answer: 5

Question: What about the “No. of mice examined at p.m. at termination of experiment (70th-75th week) with other tumours” value (newborn Swiss mice; [3]) of the same compound?
Answer: 1

Question: And the “No. of mice examined at p.m. from 50th-70th week with liver tumours” value (newborn Swiss mice; [3])?
Answer: 0

Question: What about the “No. of mice examined at p.m. from 50th-70th week with lung tumours” value (newborn Swiss mice; [3]) of the same compound?
Answer: 0

Question: And the “No. of mice examined at p.m. from 50th-70th week with other tumours” value (newborn Swiss mice; [3])?
Answer: 0

Question: And the “No. of survivors at 50 weeks” value (newborn Swiss mice; [4])?
Answer: 24

Question: What about the “No. of survivors at 70 weeks” value (newborn Swiss mice; [4]) of the same compound?
Answer: 22

Question: What about the “No. of mice examined at p.m. at termination of experiment (70th-75th week) with liver tumours” value (newborn Swiss mice; [5]) of the same compound?
Answer: 2

Question: And the “No. of mice examined at p.m. at termination of experiment (70th-75th week) with lung tumours” value (newborn Swiss mice; [5])?
Answer: 1

Question: And the “No. of mice examined at p.m. at termination of experiment (70th-75th week) with multiple liver tumours” value (newborn Swiss mice; [5])?
Answer: 0

Question: What about the “No. of mice examined at p.m. at termination of experiment (70th-75th week) with multiple lung tumours” value (newborn Swiss mice; [5]) of the same compound?
Answer: 0

Question: What about the “No. of mice examined at p.m. at termination of experiment (70th-75th week) with other tumours” value (newborn Swiss mice; [5]) of the same compound?
Answer: 0

Question: What about the “No. of mice examined at p.m. from 50th-70th week with liver tumours” value (newborn Swiss mice; [5]) of the same compound?
Answer: 0

Question: What about the “No. of mice examined at p.m. from 50th-70th week with lung tumours” value (newborn Swiss mice; [5]) of the same compound?
Answer: 0

Question: And the “No. of mice examined at p.m. from 50th-70th week with other tumours” value (newborn Swiss mice; [5])?
Answer: 0

Question: And the “No. of survivors at 50 weeks” value (newborn Swiss mice; [6])?
Answer: 21

Question: What about the “No. of survivors at 70 weeks” value (newborn Swiss mice; [6]) of the same compound?
Answer: 20

Question: What about the “incidence of the 2 kinds of tumour (liver, lung) compared with vehicle group” value (newborn Swiss mice; lowest level of dosage, Group F, 3 x 50 µg) of the same compound?
Answer: not very different from that in Group G

Question: What about the “No. of mice examined at p.m. at termination of experiment (70th-75th week) with liver tumours” value (newborn Swiss mice; [7]) of the same compound?
Answer: 4

Question: What about the “No. of mice examined at p.m. at termination of experiment (70th-75th week) with lung tumours” value (newborn Swiss mice; [7]) of the same compound?
Answer: 5

Question: And the “No. of mice examined at p.m. at termination of experiment (70th-75th week) with multiple liver tumours” value (newborn Swiss mice; [7])?
Answer: 1

Question: And the “No. of mice examined at p.m. at termination of experiment (70th-75th week) with multiple lung tumours” value (newborn Swiss mice; [7])?
Answer: 1

Question: What about the “No. of mice examined at p.m. at termination of experiment (70th-75th week) with other tumours” value (newborn Swiss mice; [7]) of the same compound?
Answer: 0

Question: And the “No. of mice examined at p.m. from 50th-70th week with liver tumours” value (newborn Swiss mice; [7])?
Answer: 0

Question: And the “No. of mice examined at p.m. from 50th-70th week with lung tumours” value (newborn Swiss mice; [7])?
Answer: 0

Question: What about the “No. of mice examined at p.m. from 50th-70th week with other tumours” value (newborn Swiss mice; [7]) of the same compound?
Answer: 0

Question: And the “No. of survivors at 50 weeks” value (newborn Swiss mice; [8])?
Answer: 16

Question: And the “No. of survivors at 70 weeks” value (newborn Swiss mice; [8])?
Answer: 16

Question: What about the “No. of mice examined at p.m. at termination of experiment (70th-75th week) with liver tumours” value (newborn Swiss mice; [9]) of the same compound?
Answer: 12

Question: What about the “No. of mice examined at p.m. at termination of experiment (70th-75th week) with lung tumours” value (newborn Swiss mice; [9]) of the same compound?
Answer: 3

Question: What about the “No. of mice examined at p.m. at termination of experiment (70th-75th week) with multiple liver tumours” value (newborn Swiss mice; [9]) of the same compound?
Answer: 8

Question: And the “No. of mice examined at p.m. at termination of experiment (70th-75th week) with multiple lung tumours” value (newborn Swiss mice; [9])?
Answer: 0

Question: And the “No. of mice examined at p.m. at termination of experiment (70th-75th week) with other tumours” value (newborn Swiss mice; [9])?
Answer: 0

Question: What about the “No. of mice examined at p.m. from 50th-70th week with liver tumours” value (newborn Swiss mice; [9]) of the same compound?
Answer: 0

Question: What about the “No. of mice examined at p.m. from 50th-70th week with lung tumours” value (newborn Swiss mice; [9]) of the same compound?
Answer: 1

Question: And the “No. of mice examined at p.m. from 50th-70th week with other tumours” value (newborn Swiss mice; [9])?
Answer: 0

Question: What about the “No. of survivors at 50 weeks” value (newborn Swiss mice; [10]) of the same compound?
Answer: 27

Question: What about the “No. of survivors at 70 weeks” value (newborn Swiss mice; [10]) of the same compound?
Answer: 26

Question: What about the “No. of mice examined at p.m. at termination of experiment (70th-75th week) with liver tumours” value (newborn Swiss mice; [11]) of the same compound?
Answer: 5

Question: What about the “No. of mice examined at p.m. at termination of experiment (70th-75th week) with lung tumours” value (newborn Swiss mice; [11]) of the same compound?
Answer: 2

Question: What about the “No. of mice examined at p.m. at termination of experiment (70th-75th week) with multiple liver tumours” value (newborn Swiss mice; [11]) of the same compound?
Answer: 4

Question: What about the “No. of mice examined at p.m. at termination of experiment (70th-75th week) with multiple lung tumours” value (newborn Swiss mice; [11]) of the same compound?
Answer: 1

Question: And the “No. of mice examined at p.m. at termination of experiment (70th-75th week) with other tumours” value (newborn Swiss mice; [11])?
Answer: 2

Question: And the “No. of mice examined at p.m. from 50th-70th week with liver tumours” value (newborn Swiss mice; [11])?
Answer: 2

Question: What about the “No. of mice examined at p.m. from 50th-70th week with lung tumours” value (newborn Swiss mice; [11]) of the same compound?
Answer: 0

Question: What about the “No. of mice examined at p.m. from 50th-70th week with other tumours” value (newborn Swiss mice; [11]) of the same compound?
Answer: 0

Question: What about the “No. of survivors at 50 weeks” value (newborn Swiss mice; [12]) of the same compound?
Answer: 21

Question: What about the “No. of survivors at 70 weeks” value (newborn Swiss mice; [12]) of the same compound?
Answer: 18

Question: What about the “activity in increasing liver and lung tumour incidence compared with parent compound” value (newborn Swiss mice; parenteral administration during early neonatal life) of the same compound?
Answer: less active than its parent compound

Question: With `c1ccc2c(c1)ccc1ccccc12` [phenanthrene] as the compound, how does the “activity in newborn mice” value (newborn mice) read?
Answer: inactive
